Earlier results as cited in patent US20210052557A1, “COMPOSITIONS FOR TREATING INFECTIVE ARTERIAL DISEASES AND RELATED CONDITIONS” (CENTRE FOR DIGESTIVE DISEASES, priority 2018, published 2021).

Assays:
[1] = test system: Chlamydophila pneumoniae (Cpn)
[2] = test system: Chlamydophila pneumoniae (Cpn); settings: single antibiotic given to patients

| Structure (SMILES) | activity against Chlamydophila pneumoniae (Cpn) [1] | clinical benefit as monotherapy [2] |
| --- | --- | --- |
| CC[C@H]1OC(=O)[C@H](C)C(=O)[C@H](C)[C@@H](O[C@@H]2O[C@H](C)C[C@H](N(C)C)[C@H]2O)[C@](C)(OC/C=C/c2cnc3ccccc3c2)C[C@@H](C)C(=O)[C@H](C)[C@H]2NC(=O)O[C@@]21C [cethromycin] | most active of the macrolides | – |
| CC[C@H]1OC(=O)[C@H](C)[C@@H](O[C@H]2C[C@@](C)(OC)[C@@H](O)[C@H](C)O2)[C@H](C)[C@@H](O[C@@H]2O[C@H](C)C[C@H](N(C)C)[C@H]2O)[C@](C)(O)C[C@@H](C)/C(=N\OCOCCOC)[C@H](C)[C@@H](O)[C@]1(C)O [roxithromycin] | – | Benefit |
| CC[C@H]1OC(=O)[C@H](C)[C@@H](O[C@H]2C[C@@](C)(OC)[C@@H](O)[C@H](C)O2)[C@H](C)[C@@H](O[C@@H]2O[C@H](C)C[C@H](N(C)C)[C@H]2O)[C@](C)(O)C[C@@H](C)CN(C)[C@H](C)[C@@H](O)[C@]1(C)O [Azithromycin] | – | some benefit, but this was not sustained |
| CN(C)c1cc(NC(=O)CNC(C)(C)C)c(O)c2c1C[C@H]1C[C@H]3[C@H](N(C)C)C(O)=C(C(N)=O)C(=O)[C@@]3(O)C(O)=C1C2=O [Tigecycline] | good activity | – |
